In this assay the test system is MRP1 cells, doxorubicin viability shift, 10 uM compound. Put plainly: doxorubicin EC50 increase in MRP-1 cells, dose response, cell-based, doxorubicin EC50 shift (AID 844). As to conditions: for EC50: measured here: doxorubicin EC50 with compound.

24 compounds from PubChem BioAssay AID844 (SRMLSC, 2007) can be followed below.

Active and inactive are the calls of the source. How the calls were made is not given here.

As for `COc1ccc(-c2nc(-c3cccc(C)c3)no2)cc1OC`, the fold increase in Dox EC50 is 0.69 (inactive) and the EC50 is 3.73 µM.

On to `COCCOC(=O)c1c(C)oc2ccc(OCC=C(C)C)cc12`, for which the fold increase in Dox EC50 was 0.5 (inactive) and the EC50 came out at 2.69 µM.

For the compound `Cc1cc(C)nc(NS(=O)(=O)c2ccc(NC(=O)c3ccc4c(c3)OCO4)cc2)n1`, the fold increase in Dox EC50 was 0.94 (inactive) and the EC50 is 5.05 µM.

For `C=CCc1c(C)nc(-c2ccccc2)nc1N/N=C(\C)c1ccccc1`, the fold increase in Dox EC50 is 0.43 (inactive) and the EC50 stood at 2.34 µM.

On to `O=C(NCc1ccc(F)cc1)C(=O)NCC1OCCN1C(=O)c1cccs1` (stereo not drawn), for which the fold increase in Dox EC50 was 1.24 (inactive) and the EC50 is 6.68 µM.

Consider `CCOC(=O)CN(C(=O)CSc1nnc(COc2ccc(OC)cc2)n1C)c1ccccc1`, for which the fold increase in Dox EC50 was 0.6 (inactive) and the EC50 was determined as 3.26 µM.

Turning to `O=C1/C(=C\c2cccs2)N=C(c2cccs2)N1Nc1ccccc1`, the fold increase in Dox EC50 is 0.84 (inactive) and the EC50 came to 4.55 µM.

Take `CC(C)(C)c1ccc(-c2nc(-c3ccncc3)no2)cc1`: the fold increase in Dox EC50 was 0.77 (inactive) and the EC50 amounted to 4.15 µM.

With `Cc1ccc(Cl)cc1N1CCN(C(=O)Cc2ccc(-n3c(=O)[nH]c4ccsc4c3=O)cc2)CC1`, the fold increase in Dox EC50 was 0.78 (inactive) and the EC50 was 4.24 µM.

For the compound `O=C(c1ccco1)N1CCN(c2nc(C3CC3)nc3c2nnn3Cc2ccccc2Cl)CC1`, the fold increase in Dox EC50 is 0.32 (inactive) and the EC50 was 1.7 µM.

With `COc1ccc(CNc2nc3c(c(=O)n(Cc4ccc(Cl)cc4)c(=O)n3C)n2C)cc1`, the fold increase in Dox EC50 was 0.83 (inactive) and the EC50 is 4.48 µM.

For `CC(C)Cn1c2c(c(O)c(C(=O)Nc3nccs3)c1=O)CCCC2`, the fold increase in Dox EC50 is 0.83 (inactive) and the EC50 amounted to 4.48 µM.

Regarding `C=CCNC(=O)c1ccccc1NC(=O)c1ccc(Cl)c(S(=O)(=O)Nc2cccc(C)c2C)c1`, the fold increase in Dox EC50 is 0.36 (inactive) and the EC50 was found to be 1.96 µM.

`O=C(Nc1nc(-c2ccccc2)cs1)c1ccc(Br)o1`: the fold increase in Dox EC50 is 1.41 (inactive) and the EC50 stood at 7.64 µM.

On to `O=C(NCCc1ccc(Cl)cc1)c1cnc2n(c1=O)CCS2`, for which the fold increase in Dox EC50 was 0.66 (inactive) and the EC50 came to 3.55 µM.

For `Cc1nn(Cc2c(F)c(F)c(F)c(F)c2F)c(C)c1NC(=O)c1ccc(COc2ccc(F)cc2)o1`, the fold increase in Dox EC50 is 1 (inactive) and the EC50 came out at 5.42 µM.

For `CCCC1S/C(=N/N=C/c2ccc(OC)cc2)N(Cc2ccccc2)C1=O` (stereo not drawn), the fold increase in Dox EC50 was 1 (inactive) and the EC50 was 5.39 µM.

As for `CCOC(=O)c1ccc(N2C(=O)c3n[nH]c(C)c3C2c2ccc(OC)cc2OC)cc1` (stereo not drawn), the fold increase in Dox EC50 is 0.28 (inactive) and the EC50 was 1.51 µM.

For `CCOC(=O)c1cc(-c2ccccc2)sc1NC(=O)C(C)Sc1nnc(C)s1` (stereo not drawn), the fold increase in Dox EC50 is 0.53 (inactive) and the EC50 was 2.87 µM.

In the case of `COc1cc(S(=O)(=O)Nc2cccc(C)c2)ccc1NC(=O)c1ccncc1`, the fold increase in Dox EC50 is 0.6 (inactive) and the EC50 turned out to be 3.26 µM.

`COc1ccc(Cc2nnc(N/N=C/c3ccc(O)cc3O)[nH]c2=O)cc1OC`: the fold increase in Dox EC50 is 0.15 (inactive) and the EC50 was found to be 0.836 µM.

For the compound `COc1cccc(-c2csc(NC(=O)Oc3ccccc3)n2)c1`, the fold increase in Dox EC50 was 1.52 and the EC50 is 8.23 µM.

On to `Oc1c(C(c2cccs2)N2CCN(c3ccc(F)cc3)CC2)sc2ncnn12` (stereo not drawn), for which the fold increase in Dox EC50 is 1.32 (inactive) and the EC50 stood at 7.1 µM.

Consider `Cc1ccc(/C=C2\SC(=S)N(CCCC(=O)Nc3nccs3)C2=O)cc1`, for which the fold increase in Dox EC50 was 0.3 (inactive) and the EC50 was determined as 1.64 µM.

What is called EC50 is the concentration that produces a half-maximal response.
